# From ChEMBL document CHEMBL1124059, “Atypical antipsychotic agents: patterns of activity in a series of 3-substituted 2-pyridinyl-1-piperazine derivatives” (J Med Chem, 1988)
# The source made the active and inactive calls. No cut-off for these calls is given here.
# Assays:
# Rattus norvegicus [1] = experiment: Ability to reverse trifluoperazine-induced catalepsy in rat (po); IA = Compound induced catalepsy; format: functional, organism-based
# D(2) dopamine receptor = D(2) dopamine receptor (Rattus norvegicus, UniProt P61169); experiment: Ability to inhibit [3H]spiperone binding to Dopamine receptor D2 in rat corpus striatum; format: tissue-based
# Rattus norvegicus [2] = experiment: In vivo inhibition of apomorphine (APO) induced stereotypy in rats (po); format: functional
# Rattus norvegicus [3] = species on record: Rattus norvegicus; experiment: Inhibition of the rat conditioned avoidance response, CAR (Tranquilizing activity, peroral); format: functional; details: po
# Rattus norvegicus [4] = experiment: Ability to reverse trifluoperazine-induced catalepsy in rat (po); format: functional
# [5] = target: T1, Adrenergic receptor alpha-1 (Rattus norvegicus, UniProt P15823+P23944+P43140); experiment: Ability to inhibit [3H]WB-4101 binding to rat cortical alpha-1-adrenergic receptor; format: protein assay
# T1 sequence (P15823 whole entry): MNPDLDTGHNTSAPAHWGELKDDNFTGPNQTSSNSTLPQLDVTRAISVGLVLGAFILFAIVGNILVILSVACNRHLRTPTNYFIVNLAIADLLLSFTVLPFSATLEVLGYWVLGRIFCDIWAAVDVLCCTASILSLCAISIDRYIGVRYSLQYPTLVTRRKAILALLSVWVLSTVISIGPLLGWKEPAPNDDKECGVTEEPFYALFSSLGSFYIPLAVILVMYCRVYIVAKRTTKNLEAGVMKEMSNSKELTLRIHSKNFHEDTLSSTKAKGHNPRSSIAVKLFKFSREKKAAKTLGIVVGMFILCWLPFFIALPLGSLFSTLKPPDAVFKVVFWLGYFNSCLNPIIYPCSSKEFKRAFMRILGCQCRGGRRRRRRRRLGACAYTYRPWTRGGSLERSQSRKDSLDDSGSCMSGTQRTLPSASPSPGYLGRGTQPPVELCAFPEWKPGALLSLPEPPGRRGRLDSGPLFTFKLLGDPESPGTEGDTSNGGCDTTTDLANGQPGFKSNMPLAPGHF
# T1 sequence (P23944 whole entry): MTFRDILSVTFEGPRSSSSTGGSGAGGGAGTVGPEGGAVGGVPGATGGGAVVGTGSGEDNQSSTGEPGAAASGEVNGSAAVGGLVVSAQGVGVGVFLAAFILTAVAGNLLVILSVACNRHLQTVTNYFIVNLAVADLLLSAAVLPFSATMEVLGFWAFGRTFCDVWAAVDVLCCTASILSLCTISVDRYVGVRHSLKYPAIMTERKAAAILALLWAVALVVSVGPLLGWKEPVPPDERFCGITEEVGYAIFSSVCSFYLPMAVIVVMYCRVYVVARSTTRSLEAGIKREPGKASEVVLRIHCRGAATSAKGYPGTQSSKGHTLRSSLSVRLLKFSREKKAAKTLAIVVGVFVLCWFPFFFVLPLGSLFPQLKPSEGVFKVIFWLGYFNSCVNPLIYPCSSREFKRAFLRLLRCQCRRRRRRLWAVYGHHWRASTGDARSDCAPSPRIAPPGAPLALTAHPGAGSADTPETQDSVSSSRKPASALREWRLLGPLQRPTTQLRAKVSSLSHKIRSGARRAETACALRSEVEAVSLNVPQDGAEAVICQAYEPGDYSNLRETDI
# T1 sequence (P43140 whole entry): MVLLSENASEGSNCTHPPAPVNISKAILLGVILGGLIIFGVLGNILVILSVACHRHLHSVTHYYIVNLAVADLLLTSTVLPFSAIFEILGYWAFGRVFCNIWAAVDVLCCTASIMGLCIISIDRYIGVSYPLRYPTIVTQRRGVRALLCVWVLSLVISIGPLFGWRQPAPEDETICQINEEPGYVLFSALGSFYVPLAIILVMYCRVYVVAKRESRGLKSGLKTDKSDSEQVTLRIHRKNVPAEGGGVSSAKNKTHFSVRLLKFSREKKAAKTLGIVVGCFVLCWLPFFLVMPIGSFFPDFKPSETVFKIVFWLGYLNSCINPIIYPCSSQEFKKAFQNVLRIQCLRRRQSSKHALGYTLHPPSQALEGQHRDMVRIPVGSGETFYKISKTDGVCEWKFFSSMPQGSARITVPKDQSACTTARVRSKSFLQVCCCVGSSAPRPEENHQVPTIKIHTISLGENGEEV
# Rattus norvegicus [6] = experiment: Induction of catalepsy in rat (po)
# D(2) dopamine receptor, sequence (P61169 whole entry): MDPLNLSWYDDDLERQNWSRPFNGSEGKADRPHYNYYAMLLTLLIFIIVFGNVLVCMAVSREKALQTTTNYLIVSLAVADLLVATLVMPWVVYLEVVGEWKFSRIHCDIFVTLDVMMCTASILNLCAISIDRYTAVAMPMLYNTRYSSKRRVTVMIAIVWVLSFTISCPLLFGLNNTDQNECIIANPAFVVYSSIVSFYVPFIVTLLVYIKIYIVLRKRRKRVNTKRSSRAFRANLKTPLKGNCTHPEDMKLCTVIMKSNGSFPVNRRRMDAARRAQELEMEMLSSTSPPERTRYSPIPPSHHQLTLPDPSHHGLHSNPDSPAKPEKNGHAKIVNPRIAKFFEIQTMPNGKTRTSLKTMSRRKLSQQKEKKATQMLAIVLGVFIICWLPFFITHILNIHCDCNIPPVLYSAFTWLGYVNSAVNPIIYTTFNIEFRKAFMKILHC
SMILES,ED50 (Rattus norvegicus [1]),IC50 (D(2) dopamine receptor),ED50 (Rattus norvegicus [2]),ED50 (Rattus norvegicus [3]),ED50 (Rattus norvegicus [4]),IC50 [5],ED50 (Rattus norvegicus [6])
O=C1SC2(CCCC2)C(=O)N1CCCCN1CCN(c2ncccc2-c2ccccc2)CC1,inactive,236 nM,> 100 mg/kg,> 100 mg/kg,,,
Nc1cccnc1N1CCN(CCCCN2C(=O)SC3(CCCC3)C2=O)CC1,inactive,> 1000 nM,,> 100 mg/kg,,,
O=C1SC2(CCCC2)C(=O)N1CCCCN1CCN(c2ncccc2[N+](=O)[O-])CC1,,69 nM,43.6 mg/kg,25.3 mg/kg,44.2 mg/kg,34.1 nM,
O=Cc1cccnc1N1CCN(CCCCN2C(=O)COCC2=O)CC1,,> 1000 nM,,> 100 mg/kg,,,
COC(=O)c1cccnc1N1CCN(CCCCN2C(=O)SC3(CCCC3)C2=O)CC1,,138 nM,50.2 mg/kg,29.8 mg/kg,5.05 mg/kg,7.8 nM,
COc1cccc(N2CCN(CCCCN3C(=O)SC4(CCCC4)C3=O)CC2)n1,inactive,> 1000 nM,> 100 mg/kg,35.9 mg/kg,,,
CC1(C)CC(=O)N(CCCCN2CCN(c3ncccc3Cl)CC2)C(=O)C1,,360 nM,,25.9 mg/kg,,,104 mg/kg
CC1(C)CC(=O)N(CCCCN2CCN(c3ncccc3-c3ccccc3)CC2)C(=O)C1,,109 nM,,67.6 mg/kg,,,90.8 mg/kg
O=C1COCC(=O)N1CCCCN1CCN(c2ncccc2Cl)CC1,,> 1000 nM,> 63 mg/kg,59.8 mg/kg,,16 nM,
N#Cc1cccnc1N1CCN(CCCCN2C(=O)CSC2=O)CC1,inactive,> 1000 nM,> 100 mg/kg,15.8 mg/kg,,39 nM,
O=C1CSC(=O)N1CCCCN1CCN(c2ccccn2)CC1,inactive,> 1000 nM,,45.8 mg/kg,,,
O=Cc1cccnc1N1CCN(CCCCN2C(=O)SC3(CCCC3)C2=O)CC1,,130 nM,48 mg/kg,60 mg/kg,12.9 mg/kg,9.6 nM,
O=C1COCC(=O)N1CCCCN1CCN(c2ncccc2-c2ccccc2)CC1,,> 41 nM,> 63 mg/kg,> 100 mg/kg,,16 nM,
O=C1COCC(=O)N1CCCCN1CCN(c2ncccc2[N+](=O)[O-])CC1,,> 1000 nM,,55 mg/kg,,38.3 nM,220 mg/kg
O=C1SC2(CCCC2)C(=O)N1CCCCN1CCN(c2ncccc2Cl)CC1,inactive,160 nM,50 mg/kg,66.9 mg/kg,,19.9 nM,
Cc1nnc(-c2cccnc2N2CCN(CCCCN3C(=O)CC4(CCCC4)CC3=O)CC2)o1,,610 nM,,70.9 mg/kg,,,
O=C1SC2(CCCC2)C(=O)N1CCCCN1CCN(c2ccccn2)CC1,inactive,620 nM,> 95 mg/kg,20.8 mg/kg,,,
CO/N=C\c1cccnc1N1CCN(CCCCN2C(=O)SC3(CCCC3)C2=O)CC1,inactive,428 nM,,71.3 mg/kg,,67.4 nM,
Cc1cccnc1N1CCN(CCCCN2C(=O)SC3(CCCC3)C2=O)CC1,inactive,630 nM,> 50 mg/kg,46.4 mg/kg,,,
COC(=O)c1cccnc1N1CCN(CCCCN2C(=O)CC(C)(C)CC2=O)CC1,,> 1000 nM,69.2 mg/kg,57 mg/kg,,36.9 nM,228 mg/kg
N#Cc1cccnc1N1CCN(CCCCN2C(=O)SC3(CCCC3)C2=O)CC1,,34 nM,29.3 mg/kg,38 mg/kg,9.2 mg/kg,35 nM,
Cc1cccnc1N1CCN(CCCCN2C(=O)CC(C)(C)CC2=O)CC1,,> 1000 nM,> 100 mg/kg,42.1 mg/kg,,,> 200 mg/kg
COc1cccc(N2CCN(CCCCN3C(=O)CC(C)(C)CC3=O)CC2)n1,,> 1000 nM,76.2 mg/kg,11.9 mg/kg,,68 nM,48 mg/kg
Cc1cccnc1N1CCN(CCCCN2C(=O)CC3(CCCC3)CC2=O)CC1,,476 nM,,46.4 mg/kg,,,> 186 mg/kg
CN1CCN(C2=Nc3cc(Cl)ccc3Nc3ccccc32)CC1,inactive,,,,,,
COc1cccnc1N1CCN(CCCCN2C(=O)SC3(CCCC3)C2=O)CC1,inactive,79 nM,< 57 mg/kg,18.8 mg/kg,,,
